# Tested on: MCF7 tumors
# Assay: Paclitaxel treatment of single-cell-derived MCF7 tumors on collagen islands; apoptosis counted by Hoechst nuclear morphology
# Assay type: cell-based
# Protocol: Hoechst staining was used to visualize cells in the tumor using fluorescence microscopy (FIG. 4). Specifically, cells were washed in PBS and fixed in 4% paraformaldehyde before staining with 1:1000 PBS diluted solution of 20 mM Hoechst 33342 (Thermo Fischer Scientific, Waltham, MA) for 10 minutes. After washing once with PBS, tumors were imaged with a ZEISS LSM 800 confocal microscope with an excitation laser of 401 nm wavelength and with 10× magnification lens (EC Plan-Neofluar® 10×/0.30 M27). Bright-field and fluorescence images were also obtained using NIKON ECLIPSE® 80i upright fluorescence microscope, which were used to analyze the morphology of the tumors with ImageJ. […]
# For each tumor, dead and live nuclei at every alternate plane of the z-stack were manually counted using Fiji cell counting software. […]
# Since each island comprises a relatively small amount of collagen (e.g. as opposed to an entire well of a 96-well plate), excess dye that inadvertently diffuses into the collagen can be washed easily to reduce any background fluorescence signal. Live and dead cells (the latter indicated by smaller or fragmented nuclei with intense staining due to DNA condensation) from individual planes of z-stack confocal images of each tumor were manually counted according to a procedure described by Crowley et al. (see, e.g., Crowley et al., Cold Spring Harb. Protoc. pdb.prot087205 2016). […]
smiles,measurement,setting,value
CC(=O)O[C@H]1C(=O)[C@@]2(C)[C@H]([C@H](OC(=O)c3ccccc3)[C@]3(O)C[C@H](OC(=O)[C@H](O)[C@@H](NC(=O)c4ccccc4)c4ccccc4)C(C)=C1C3(C)C)[C@]1(OC(C)=O)CO[C@@H]1C[C@@H]2O [Paclitaxel],average cell death (percentage of apoptotic cells),"13-day old MCF7 tumors, Paclitaxel 5 nM, 20 nM and 100 nM for 24 hours, Hoechst 33342 nuclear morphology",increased with drug concentration
same,variation in the response of individual tumors,"each drug concentration (5, 20, 100 nM), 24 hours",significant variation in the response of individual tumors for each drug concentration

# Reference: patent US12331312B2, “Deterministic culturing of single cells” (Purdue Research Foundation, priority 2020, dated 2025)
